For data set [1] the following is noted: for ln k: converted from log Kobs. Here is the method: Specifically, a graph of FIG. 185 on page 95 of the publication was cited. FIG. 1 is an Arrhenius plot of degradation of thiamine hydrochloride in a vitamin complex liquid agent, the Y axis indicates log Kobs (day^−1), and the X axis indicates 1/T (K^1). The stable periods were calculated based on the activation energy for degradation of thiamine hydrochloride in the vitamin complex liquid agent, shown in the graph.
In FIG. 1, the Y axis is indicated by not ln, but log. Therefore log Kobs was converted into ln k.
Then, −Ea/R and ln A were calculated from the ln k and 1/T (K^−1) on the X axis of FIG. 1 based on the Arrhenius equation represented by the formula (1) below.

The conditions of data set [2]: degradation in vitamin complex liquid agent, cited from earlier work.

Where a name gives a salt, the structure may show the parent alone. Read-outs that look alike come from different tables or passages of the source.

Turning to `Cc1ncc(C[n+]2csc(CCO)c2C)c(N)n1` [thiamine hydrochloride], the ln k in data set [1] (T 20.0 ° C.) was −9.4406; in data set [1] (T 22.5 ° C.) it was −8.635; in data set [1] (T 29.1 ° C.), −7.829; in data set [1] (T 38.7 ° C.) it was −6.6775; in data set [1] (T 50.0 ° C.), −5.296; in data set [1] (T 57.6 ° C.) it was −4.0986. The ln k in data set [1] (T 67.7 ° C.) was −2.993. Besides, in data set [1] (intercept b of Arrhenius equation from ln k and 1/T (K^−1)), the “ln A” value is given as 35.139. In addition, the “−Ea/R” value in data set [1] (slope a of Arrhenius equation from ln k and 1/T (K^−1)) is −13005. Further, the Kobs in data set [2] (T 20.0 ° C.) was 0.000 day⁻¹; in data set [2] (T 22.5 ° C.) it was 0.000 day⁻¹; in data set [2] (T 29.1 ° C.), 0.000 day⁻¹; in data set [2] (T 38.7 ° C.), 0.001 day⁻¹; in data set [2] (T 50.0 ° C.), 0.005 day⁻¹; in data set [2] (T 57.6 ° C.) it was 0.017 day⁻¹. Further, in data set [2] (T 67.7 ° C.), the Kobs is 0.050 day⁻¹. The log10k is −4.100 in data set [2] (T 20.0 ° C.); −3.750 in data set [2] (T 22.5 ° C.); −3.400 in data set [2] (T 29.1 ° C.); −2.900 in data set [2] (T 38.7 ° C.); −2.300 in data set [2] (T 50.0 ° C.); −1.780 in data set [2] (T 57.6 ° C.). Further, the log10k in data set [2] (T 67.7 ° C.) is listed as −1.300.

(Values after patent publication US20120156333A1, “STABILIZED BETA CRYPTOXANTHIN-CONTAINING WATER AND THE USE THEREOF” (ARKRAY, INC., priority 2010, published 2012).)
